Measurements as given in patent publication US11192890B2, “FGFR kinase inhibitors and pharmaceutical uses” (AUCKLAND UNISERVICES LIMITED, priority 2017, dated 2021).
pIC50: −log10 of the molar value. Read-outs that look alike come from different tables or passages of the source.

How the values were obtained:
SW780 cells = assay: Oxic and anoxic anti-proliferative activity of the prodrugs; assay type: cell-based; details: Homo sapiens, SW780; oxic conditions; read-out: Cellular Anti-proliferative IC50, SW780, Oxic
[1] = Pulse radiolysis of prodrugs; assay type: physicochemical
H520 cells = assay: Oxic and anoxic anti-proliferative activity of the prodrugs; details: read-out: Cellular Anti-proliferative IC50, H520, Oxic; oxic conditions
SUM52 cells = assay: as above; details: read-out: Cellular Anti-proliferative IC50, SUM52, Oxic; oxic conditions
[2] = test system: FGFR1 in H520 cells (phospho-ERK1/2); assay: Drug washout Western blot assay, H520 cells; assay type: cell-based; details: for reversible or irreversible inhibition of FGFR1 in cells: 100, 300 and 600 nM, with and without washout; for phospho-ERK1/2 after extensive drug washout: washout prior to FGF-stimulation
[3] = test system: FGFR3-amplified SW780 bladder cancer cells; assay: Cell proliferation assay (SRB); details: Homo sapiens, SW780, 120 h
[4] = test system: FGFR1-amplified H520 non-small cell lung cancer cells; assay: Cell proliferation assay (SRB); assay type: cell-based; details: Homo sapiens, NCI-H520, 168 h, read-out: Cellular Anti-proliferative IC50, H520
panel of 456 kinases = assay: Biochemical kinase selectivity screening (DiscoveRx KINOMEscan); assay type: binding
[5] = test system: FGFR2-amplified SUM52 breast cancer cells; assay: Cell proliferation assay (SRB); assay type: cell-based; details: SUM52, 120 h, read-out: Cellular Anti-proliferative IC50, SUM52, 5 days drug exposure
[6] = test system: FGFR4-amplified Hep3B hepatocellular carcinoma cells; assay: Cell proliferation assay (SRB); assay type: cell-based; details: Homo sapiens, Hep3B; read-out: Cellular Anti-proliferative IC50, Hep3B
[7] = molecular target: T1, recombinant FGFR1 (C584S) kinase domain (Homo sapiens, UniProt P11362, C584S); assay: FGFR1 (C584S) covalent binding protein mass spectrometry assay; details: protein:inhibitor 1:10, 37° C.
T1 construct: made in house; host or cells: pETDuet vector, IPTG induction in Terrific Broth (bacterial)
Experimental: The previously cloned C488A/C584S FGFR1 construct was modified by site-directed mutagenesis to provide a gene encoding the C584S FGFR1 kinase domain with the cysteine at amino acid C488 reinstated. Expression and purification of this protein followed the protocol described above but with the addition of 10% glycerol to all buffers and a change of buffer pH to a value of 8.5. Protein for mass spectrometry was concentrated to ˜40 mg/ml and was mixed 1:1 (v/v) with glycerol, and then frozen at −20° C. or flash cooled in liquid nitrogen and stored at −80° C. until needed.
Protein samples were buffer exchanged to remove glycerol (the final buffer comprised 20 mM Tris-HCl pH 8.5, 10% (v/v) glycerol, 20 mM NaCl, 5 mM EDTA, 2 mM TCEP) and were mixed with each inhibitor at 1:10 molar ratio (protein:inhibitor). Final protein concentration was 20 μM. […] Samples were mixed with 90 μL of 0.1% formic acid to quench the reaction followed by flash cooling in liquid nitrogen. Samples were stored at −80° C. until needed. All experiments were carried out in triplicate.
Samples were subjected to liquid chromatography mass spectrometry (LC-MS) to show mass changes attributable to irreversible inhibition. Mass spectrometry experiments were performed at the University of Auckland Mass Spectrometry Center using an electropspray QSTAR® XL ESI quadrupole Time-of-Flight (QToF) MS system (Applied Biosystems) operated in positive ionization mode. The instrument was calibrated using Renin Substrate Standard (SCIEX), over the m/z range 100-2000. Protein/inhibitor samples were thawed and 2 μL volumes injected into a liquid chromatography (LC) BIOshell™ A400 Protein C4 HPLC column (10 cm×2.1 mm, 3.4 μm) attached to the mass spectrometer. […] Following elution, samples were directly injected into the mass spectrometer for separation and mass analysis. Mass spectrometry data were processed and analysed using the PeakView™ 2.1 software and the Bio Tool Kit plug-in (SCIEX) and covered an m/z range of 330-1600. Deconvolution calculations allowed visualisation of intact mass protein peaks and allowed peak area measurement to assess the percentage of protein covalently modified by each inhibitor at each time point. Data was plotted using GraphPad Prism 7 (GraphPad).

[8] = test system: FGFR2 in SUM52 cells (phospho-ERK1/2); assay: Drug washout Western blot assay, SUM52 cells; assay type: cell-based; details: for phospho-ERK1/2 after extensive drug washout: washout prior to FGF-stimulation
FGFR2 = molecular target: T2, FGFR2 (Homo sapiens, UniProt P21802); assay: Isolated enzyme FRET-based Z-Lyte kinase inhibition assay; assay type: biochemical; details: means from 3 independent experiments; read-out: Isolate Enzyme Inhibition IC50, FGFR2
T2 construct: purchased Invitrogen
Experimental: (§1) FGFR1-4 and the Z-Lyte Kinase Assay Kit were purchased from Invitrogen. The concentration gradients from 5.1×10^−11 to 1.0×10^−6 mol/L were used for all the test compounds. The experiments were performed according to the instructions of the manufacturer.
(§2) FGFR1-4 isolated enzyme activity was determined using the FRET-based Z-Lyte kinase inhibition assay. The data are the means from 3 independent experiments.

FGFR3 = molecular target: T3, FGFR3 (Homo sapiens, UniProt P22607); assay: as above; assay type: biochemical; details: means from 3 independent experiments; read-out: Isolate Enzyme Inhibition IC50, FGFR3
T3 construct: purchased Invitrogen
Experimental: as §1, §2

FGFR1 = molecular target: T4, FGFR1 (Homo sapiens, UniProt P11362); assay: as above; assay type: biochemical; details: means from 3 independent experiments; read-out: Isolate Enzyme Inhibition IC50, FGFR1
T4 construct: purchased Invitrogen
Experimental: as §1, §2

FGFR4 = molecular target: T5, FGFR4 (Homo sapiens, UniProt P22455); assay: as above; assay type: biochemical; details: means from 3 independent experiments; read-out: Isolate Enzyme Inhibition IC50, FGFR4
T5 construct: purchased Invitrogen
Experimental: as §1, §2

[9] = test system: FGFR3 in SW780 cells (phospho-ERK1/2); assay: Drug washout Western blot assay, SW780 cells; assay type: cell-based; details: for phospho-ERK1/2 after extensive drug washout: washout prior to FGF-stimulation

T3 sequence (P22607 23-806): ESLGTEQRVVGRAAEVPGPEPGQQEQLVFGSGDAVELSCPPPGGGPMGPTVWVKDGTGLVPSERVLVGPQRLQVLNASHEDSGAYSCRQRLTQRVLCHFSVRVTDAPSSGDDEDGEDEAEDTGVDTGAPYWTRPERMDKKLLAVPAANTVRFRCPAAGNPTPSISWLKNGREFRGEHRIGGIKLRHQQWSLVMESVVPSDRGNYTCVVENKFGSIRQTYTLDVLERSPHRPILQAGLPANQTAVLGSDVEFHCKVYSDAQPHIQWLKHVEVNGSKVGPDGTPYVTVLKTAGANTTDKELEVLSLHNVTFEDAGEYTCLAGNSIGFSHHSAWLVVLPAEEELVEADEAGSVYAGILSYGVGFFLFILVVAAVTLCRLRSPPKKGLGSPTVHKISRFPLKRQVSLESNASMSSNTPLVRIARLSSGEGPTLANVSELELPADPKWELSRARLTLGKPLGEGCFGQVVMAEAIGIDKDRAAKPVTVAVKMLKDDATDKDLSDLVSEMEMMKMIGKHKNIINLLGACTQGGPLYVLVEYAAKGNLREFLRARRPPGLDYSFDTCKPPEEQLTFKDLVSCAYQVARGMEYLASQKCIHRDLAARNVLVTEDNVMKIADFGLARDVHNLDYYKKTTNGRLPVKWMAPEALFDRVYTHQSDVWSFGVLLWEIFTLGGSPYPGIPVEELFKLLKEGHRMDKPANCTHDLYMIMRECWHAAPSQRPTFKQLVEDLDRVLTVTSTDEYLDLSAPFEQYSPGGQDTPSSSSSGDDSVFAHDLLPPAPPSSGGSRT
T4 sequence (P11362 22-822): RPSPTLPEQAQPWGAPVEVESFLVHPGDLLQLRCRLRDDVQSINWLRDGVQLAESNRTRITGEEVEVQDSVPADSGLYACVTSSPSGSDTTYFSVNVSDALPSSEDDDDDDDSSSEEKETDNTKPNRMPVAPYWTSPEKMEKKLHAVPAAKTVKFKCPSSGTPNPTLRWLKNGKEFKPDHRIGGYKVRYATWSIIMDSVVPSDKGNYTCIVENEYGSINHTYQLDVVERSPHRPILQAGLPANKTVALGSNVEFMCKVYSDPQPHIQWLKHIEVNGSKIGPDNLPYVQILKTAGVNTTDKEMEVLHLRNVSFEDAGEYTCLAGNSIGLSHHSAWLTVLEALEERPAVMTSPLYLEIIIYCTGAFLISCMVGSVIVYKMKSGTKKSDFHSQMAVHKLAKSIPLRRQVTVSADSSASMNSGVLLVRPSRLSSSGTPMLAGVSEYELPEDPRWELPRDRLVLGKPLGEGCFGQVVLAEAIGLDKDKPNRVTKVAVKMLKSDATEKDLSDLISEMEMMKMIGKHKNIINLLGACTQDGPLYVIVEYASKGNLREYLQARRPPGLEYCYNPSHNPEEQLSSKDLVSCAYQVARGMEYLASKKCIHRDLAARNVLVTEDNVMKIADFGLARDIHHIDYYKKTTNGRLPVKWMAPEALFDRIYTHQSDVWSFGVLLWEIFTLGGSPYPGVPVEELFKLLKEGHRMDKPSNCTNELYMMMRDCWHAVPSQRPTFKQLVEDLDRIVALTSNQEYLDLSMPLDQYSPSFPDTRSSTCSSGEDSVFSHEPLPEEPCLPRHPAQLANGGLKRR
T5 sequence (P22455 22-802): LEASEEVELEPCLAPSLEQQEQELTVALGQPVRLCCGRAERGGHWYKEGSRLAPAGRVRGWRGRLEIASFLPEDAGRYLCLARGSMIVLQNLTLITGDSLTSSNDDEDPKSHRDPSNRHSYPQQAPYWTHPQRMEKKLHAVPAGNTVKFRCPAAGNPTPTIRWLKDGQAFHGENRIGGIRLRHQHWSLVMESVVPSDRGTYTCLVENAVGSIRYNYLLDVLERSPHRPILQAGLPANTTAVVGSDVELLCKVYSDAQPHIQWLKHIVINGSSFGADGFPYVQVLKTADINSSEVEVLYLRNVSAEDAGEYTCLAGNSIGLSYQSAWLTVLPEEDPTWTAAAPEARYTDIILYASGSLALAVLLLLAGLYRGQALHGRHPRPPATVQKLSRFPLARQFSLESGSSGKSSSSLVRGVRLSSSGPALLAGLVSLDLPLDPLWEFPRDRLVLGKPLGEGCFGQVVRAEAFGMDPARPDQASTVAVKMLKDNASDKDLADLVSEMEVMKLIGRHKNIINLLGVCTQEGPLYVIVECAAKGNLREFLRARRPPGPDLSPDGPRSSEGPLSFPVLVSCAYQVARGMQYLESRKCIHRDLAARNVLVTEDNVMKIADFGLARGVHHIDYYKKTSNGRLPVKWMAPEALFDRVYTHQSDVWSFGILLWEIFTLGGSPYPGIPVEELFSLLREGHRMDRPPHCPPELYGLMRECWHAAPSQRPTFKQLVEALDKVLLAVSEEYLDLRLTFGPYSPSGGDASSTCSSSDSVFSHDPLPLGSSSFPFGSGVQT
T2 sequence (P21802 22-821): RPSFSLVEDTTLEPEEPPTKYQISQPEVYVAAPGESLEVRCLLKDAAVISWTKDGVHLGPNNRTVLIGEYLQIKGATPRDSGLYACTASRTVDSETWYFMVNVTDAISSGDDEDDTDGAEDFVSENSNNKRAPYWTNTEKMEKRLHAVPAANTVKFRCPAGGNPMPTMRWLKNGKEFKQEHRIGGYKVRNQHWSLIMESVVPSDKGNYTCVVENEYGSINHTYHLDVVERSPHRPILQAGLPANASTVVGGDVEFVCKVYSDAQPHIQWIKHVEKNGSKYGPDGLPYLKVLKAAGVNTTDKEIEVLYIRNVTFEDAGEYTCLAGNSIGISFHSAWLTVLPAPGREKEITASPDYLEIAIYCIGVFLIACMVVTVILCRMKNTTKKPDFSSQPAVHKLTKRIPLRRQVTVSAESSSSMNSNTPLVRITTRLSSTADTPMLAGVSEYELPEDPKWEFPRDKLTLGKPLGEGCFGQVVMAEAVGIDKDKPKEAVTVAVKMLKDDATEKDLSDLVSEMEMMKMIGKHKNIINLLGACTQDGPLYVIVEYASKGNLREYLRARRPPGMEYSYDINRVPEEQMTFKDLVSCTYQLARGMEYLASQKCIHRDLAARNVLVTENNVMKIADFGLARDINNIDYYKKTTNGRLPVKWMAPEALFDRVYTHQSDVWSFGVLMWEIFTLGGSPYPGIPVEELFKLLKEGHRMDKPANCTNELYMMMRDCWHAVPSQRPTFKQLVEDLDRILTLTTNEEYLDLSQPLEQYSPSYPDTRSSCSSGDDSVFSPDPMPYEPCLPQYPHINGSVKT
T1 sequence (P11362 with tags, fused parts or gaps C584S): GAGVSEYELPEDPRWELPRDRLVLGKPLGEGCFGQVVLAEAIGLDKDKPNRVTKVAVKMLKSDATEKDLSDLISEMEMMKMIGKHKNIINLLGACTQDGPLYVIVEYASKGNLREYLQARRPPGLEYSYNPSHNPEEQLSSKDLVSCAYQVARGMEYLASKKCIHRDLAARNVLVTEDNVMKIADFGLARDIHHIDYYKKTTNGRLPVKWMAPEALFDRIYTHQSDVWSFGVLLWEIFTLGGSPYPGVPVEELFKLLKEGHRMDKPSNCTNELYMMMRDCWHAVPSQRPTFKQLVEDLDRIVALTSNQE

Question: With `COc1cc(OC)c(Cl)c(N2Cc3cnc(NC(C)C)nc3N(C3CCN(C(=O)/C=C/C[N+](C)(C)Cc4c([N+](=O)[O-])ncn4C)CC3)C2=O)c1Cl.[Br-]` [Compound 202, (E)-4-(4-(3-(2,6-dichloro-3,5-dimethoxyphenyl)-7-(isopropylamino)-2-oxo-3,4-dihydropyrimido[4,5-d]pyrimidin-1(2H)-yl)piperidin-1-yl)-N,N-dimethyl-N-((1-methyl-4-nitro-1H-imidazol-5-yl)methyl)-4-oxobut-2-en-1-aminium bromide] as the compound, how does the pIC50 (SW780 cells) read?
Answer: 5.67

Question: And the “first order rate of fragmentation kfrag” value [1]?
Answer: 26 s⁻¹

Question: And the melting point?
Answer: 171 to 174 °C

Question: And the pIC50 (H520 cells)?
Answer: 5.76

Question: And the pIC50 (SUM52 cells)?
Answer: 6.13

Question: And the “reversible or irreversible inhibition of FGFR1 in cells” value ([2]; H520, 2 hours exposure)?
Answer: reversible inhibitors

Question: With `COc1cc(OC)c(Cl)c(N2Cc3cnc(Nc4ccc(F)cc4)nc3N(C3CCN(C(=O)/C=C/CN(C)C)CC3)C2=O)c1Cl` [Compound 120, (E)-3-(2,6-dichloro-3,5-dimethoxyphenyl)-1-(1-(4-(dimethylamino)but-2-enoyl)piperidin-4-yl)-7-((4-fluorophenyl)amino)-3,4-dihydropyrimido[4,5-d]pyrimidin-2(1H)-one] as the compound, how does the pIC50 ([3]; read-out: Cellular Anti-proliferative IC50, SW780, 5 days drug exposure) read?
Answer: 7.80

Question: And the pIC50 [4]?
Answer: 8.06

Question: And the “share of the non-mutant kinases studied with Percent Control <35” value (panel of 456 kinases; 1 uM, 33/403 kinases)?
Answer: 8.2%

Question: And the “selectivity for the FGFR family” value (panel of 456 kinases; panel of 456 kinases)?
Answer: excellent selectivity

Question: What about the “S(35) selectivity score” value (panel of 456 kinases; set concentration of 1 uM) of the same compound?
Answer: 0.082

Question: What about the pIC50 [5] of the same compound?
Answer: 9.10

Question: And the “reversible or irreversible inhibition of FGFR1 in cells” value ([2]; H520, 2 hours exposure)?
Answer: potent, irreversible inhibition

Question: Which results are given for `CNc1ncc2c(n1)N([C@H]1CCN(C(=O)/C=C/C[N+](C)(C)Cc3c([N+](=O)[O-])ncn3C)C1)C(=O)N(c1c(Cl)c(OC)cc(OC)c1Cl)C2.[Br-]` [Compound 200, (S,E)-4-(3-(3-(2,6-dichloro-3,5-dimethoxyphenyl)-7-(methylamino)-2-oxo-3,4-dihydropyrimido[4,5-d]pyrimidin-1(2H)-yl)pyrrolidin-1-yl)-N,N-dimethyl-N-((1-methyl-4-nitro-1H-imidazol-5-yl)methyl)-4-oxobut-2-en-1-aminium bromide]?
Answer: pIC50 (SW780 cells): 5.58; first order rate of fragmentation kfrag [1]: 32 s⁻¹; melting point: 195 to 198 °C; pIC50 (H520 cells): 5.44; pIC50 (SUM52 cells): 6.64; reversible or irreversible inhibition of FGFR1 in cells ([2]; H520, 2 hours exposure): reversible inhibitor; concentration required to suppress FGFR1 signalling through phospho-ERK1/2 ([2]; H520, 2 hours exposure, tested at 100, 300 and 600 nM): 300 nM

Question: With `COc1cc(OC)c(Cl)c(N2Cc3cnc(NC4CCCCC4)nc3N([C@H]3CCN(C(=O)/C=C/CN(C)C)C3)C2=O)c1Cl` [Compound 105, (S,E)-7-(cyclohexylamino)-3-(2,6-dichloro-3,5-dimethoxyphenyl)-1-(1-(4-(dimethylamino)but-2-enoyl)pyrrolidin-3-yl)-3,4-dihydropyrimido[4,5-d]pyrimidin-2(1H)-one] as the compound, how does the pIC50 [6] read?
Answer: 7.10

Question: And the pIC50 ([3]; read-out: Cellular Anti-proliferative IC50, SW780)?
Answer: 8.40

Question: What about the pIC50 [4] of the same compound?
Answer: 7.17

Question: What about the pIC50 [5] of the same compound?
Answer: 8.68

Question: What about the “% Conversion to FGFR1 (C584S) covalent adduct after 120 minutes incubation” value [7] of the same compound?
Answer: 8%

Question: What about the “exposure concentration for irreversible inhibition (fully covalently bind the target) in cells” value ([8]; SUM52 (FGFR2), 30 minute exposure) of the same compound?
Answer: 1000 nM

Question: And the “inhibition of phosphorylation of ERK1/2, no washout” value (“inhibition … no washout” for short) ([8]; SUM52, 100 nM, 30 min, then FGF-stimulation)?
Answer: complete inhibition

Question: What about the “phospho-ERK1/2 after extensive drug washout” value ([8]; SUM52, 100 nM, 30 min) of the same compound?
Answer: remained inhibited

Question: And the “phospho-ERK1/2 after extensive drug washout” value ([8]; SUM52, 1000 nM, 30 min)?
Answer: essential full inhibition

Question: What about the pIC50 (FGFR2) of the same compound?
Answer: 7.80

Question: What about the pIC50 (FGFR3) of the same compound?
Answer: 7.48

Question: And the pIC50 (FGFR1)?
Answer: 8.92

Question: And the pIC50 (FGFR4)?
Answer: 6.14

Question: What about the “exposure concentration for irreversible inhibition (fully covalently bind the target) in cells” value ([9]; SW780 (FGFR3), 30 minute exposure) of the same compound?
Answer: 1000 nM

Question: And the “inhibition … no washout” value ([9]; SW780, 100 nM, 30 min, then FGF-stimulation)?
Answer: complete inhibition

Question: What about the “phospho-ERK1/2 after extensive drug washout” value ([9]; SW780, 100 nM, 30 min) of the same compound?
Answer: fully restored

Question: What about the “phospho-ERK1/2 after extensive drug washout” value ([9]; SW780, 1000 nM, 30 min) of the same compound?
Answer: essential full inhibition

Question: What about the “exposure concentration for irreversible inhibition (fully covalently bind the target) in cells” value ([2]; H520 (FGFR1), 30 minute exposure) of the same compound?
Answer: 1000 nM

Question: And the “inhibition … no washout” value ([2]; H520, 100 nM, 30 min, then FGF-stimulation)?
Answer: complete inhibition

Question: And the “phospho-ERK1/2 after extensive drug washout” value ([2]; H520, 100 nM, 30 min)?
Answer: partially inhibited

Question: And the “phospho-ERK1/2 after extensive drug washout” value ([2]; H520, 1000 nM, 30 min)?
Answer: essential full inhibition
